Test results reported in patent publication US4257941A, “Polycyclic nitrogen-containing compounds” (BASF Aktiengesellschaft, priority 1976, dated 1981).
Where two headings read alike, the source gives them in different places.

Legend:
Avena sativa = test: Growth height of Gramineae (Example 11, Table B); format: in vivo; settings: 3.0 kg/ha, 0 = no inhibition, 100 = no growth; for inhibition at 3000 g/ha: Avena sativa, read-out: growth inhibition compared with untreated control
Description: (§1) The vessels used for the experiments were plastic pots having a volume of 1,130 cm^3 (Table A) or paraffined paper cups having a volume of 170 cm^3 (Table B). The pots and cups were filled with a sandy loam. The seeds of the test plants-separated by species-were sown shallow. Preemergence treatment (soil treatment) was effected immediately after sowing and before germination of the seeds. Seeds lying on the surface came into contact with the active ingredients. Postemergence treatment (leaf treatment) took place at an average growth height of the plants (depending on the rate of growth) of from 6 to 10 cm. The substances were suspended, emulsified or dissolved in water as diluent and applied by means of fine nozzles. The vessels were kept in the greenhouse in a temperature range of 12° C. to 25° C., and were regularly sprinkler irrigated for the duration of the experiment. The observation period was 6 to 8 weeks.

Hordeum vulgare = test: Growth height of Gramineae (Example 11, Table B); format: in vivo; settings: 3.0 kg/ha, 0 = no inhibition, 100 = no growth; for inhibition at 3000 g/ha: Hordeum vulgare, read-out: growth inhibition compared with untreated control
Description: as §1

Lolium multifl. = test: Growth height of Gramineae (Example 11, Table B); format: in vivo; settings: 3.0 kg/ha, 0 = no inhibition, 100 = no growth; for inhibition at 3000 g/ha: Lolium, read-out: growth inhibition compared with untreated control
Description: as §1

sugar beet = test: Sugar content of sugar beet in the open (Example 21); format: in vivo, Beta vulgaris sap. altissima (Kleinwanzleben KAWPoly); settings: 2.0 kg/ha; for Sugar content in freshly lifted beet, absolute: control 12.6 a; for Sugar content in freshly lifted beet, relative increase: control 100
Description: The crop plant was Beta vulgaris sap. altissima, variety "Kleinwanzleben KAWPoly". The soil was a sandy loam (1.5% organic substance, pH 5.7). Mineral fertilization totalled 400 kg N, 100 kg P2 O5, and 100 kg K2 O per hectare. For chemical weed control, 2.5 kg/ha of 1-phenyl-4-amino-5-chloropyridazone-(6) was applied before emergence of the beet plants. Aphids were controlled with dimethoate (O,O-dimethyl-S-(N-methylcarbonylmethyl)-phosphorus dithioate). Sowing took place on Mar. 10, 1975. The beets were lifted comparatively early on Sept. 29, 1975. The active ingredient was applied with the aid of spraying equipment with fine nozzles, mounted on a tractor. The amount of water used for dispersion purposes was 780 liters/ha. Treatment was effected on 2 different dates and on different plots:
I--the beet had 5 to 7 true leaves;
II--five weeks before harvesting, on the well developed plants. The sugar content was determined from fresh beets immediately after lifting.

Digitaria sanguinalis = test: Herbicidal action (Example 25); format: in vivo; settings: preemergence
How it was run: (§2)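 Herbicidal effect was judged by eye 2 to 6 weeks after pre- or postemergence spraying, scoring 0 for no damage through 100 for total kill. Cups were held in a greenhouse at 12°-25° C. or 18°-35° C. with thorough sprinkler irrigation.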

Cynodon dactylon = test: Herbicidal action (Example 25); format: in vivo; settings: preemergence
How it was run: as §2

Cyperus esculentus = test: Herbicidal action (Example 25); format: in vivo; settings: preemergence
How it was run: as §2

Alopecurus myosuroides = test: Herbicidal action (Example 25); format: in vivo; settings: Alopecurus myosuroides, pre-emergence, read-out: percentage damage
How it was run: as §2

Ipomoea spp. = test: Herbicidal action (Example 25); format: in vivo; settings: preemergence
How it was run: as §2

Euphorbia spp. = test: Herbicidal action (Example 25); format: in vivo; settings: preemergence
How it was run: as §2

Matricaria chamomilla = test: Herbicidal action (Example 25); format: in vivo; settings: preemergence, 2.0 kg/ha
How it was run: as §2

Panicum virgatum = test: Herbicidal action (Example 25); format: in vivo; settings: preemergence, 2.0 kg/ha
How it was run: as §2

Poa annua = test: Herbicidal action (Example 25); format: in vivo; settings: Poa annua, pre-emergence, read-out: percentage damage
How it was run: as §2

Sorghum halepense = test: Herbicidal action (Example 25); format: in vivo; settings: preemergence
How it was run: as §2

Stellaria media = test: Herbicidal action (Example 25); format: in vivo; settings: preemergence, 2.0 kg/ha
How it was run: as §2

Setaria faberii = test: Herbicidal action (Example 25); format: in vivo; settings: preemergence
How it was run: as §2

Sinapis alba = test: Herbicidal action (Example 25); format: in vivo; settings: pre-emergence, read-out: percentage damage; for pest or weed control at 4000 g/ha: 4.0 kg/ha
How it was run: as §2

## Clc1ccc(N2N=NC3C4CC(C5N=NC45)C32)cc1Cl (stereo not shown)
Avena sativa; leaf treatment
  growth inhibition compared with untreated control: 40%
Avena sativa; soil treatment
  growth inhibition compared with untreated control: 30%
Hordeum vulgare; leaf treatment
  growth inhibition compared with untreated control: 30%
Hordeum vulgare; soil treatment
  growth inhibition compared with untreated control: 40%
Lolium multifl.; leaf treatment
  growth inhibition compared with untreated control: 25%
Lolium multifl.; soil treatment
  growth inhibition compared with untreated control: 30%

## c1ccc(-n2nccc2N2N=NC3C4CC(C5N=NC45)C32)cc1 (stereo not shown)
Avena sativa; leaf treatment
  growth inhibition compared with untreated control: 20%
Avena sativa; soil treatment
  growth inhibition compared with untreated control: 60%
Hordeum vulgare; leaf treatment
  growth inhibition compared with untreated control: 20%
Hordeum vulgare; soil treatment
  growth inhibition compared with untreated control: 35%
Lolium multifl.; leaf treatment
  growth inhibition compared with untreated control: 0%

## Brc1ccc(N2N=NC3C4CC(C5NNC45)C32)cc1 (stereo not shown)
Avena sativa; leaf treatment
  inhibition at 3000 g/ha: 60%
Avena sativa; soil treatment
  inhibition at 3000 g/ha: 60%
Hordeum vulgare; leaf treatment
  inhibition at 3000 g/ha: 50%
Hordeum vulgare; soil treatment
  inhibition at 3000 g/ha: 60%
Lolium multifl.; leaf treatment
  inhibition at 3000 g/ha: 50%
Lolium multifl.; soil treatment
  inhibition at 3000 g/ha: 50%

## Brc1ccc(N2C3C4CC(C5N=NC45)C32)cc1 (stereo not shown)
Avena sativa; leaf treatment
  inhibition at 3000 g/ha: 50%
Avena sativa; soil treatment
  inhibition at 3000 g/ha: 40%
Hordeum vulgare; leaf treatment
  inhibition at 3000 g/ha: 50%
Hordeum vulgare; soil treatment
  inhibition at 3000 g/ha: 60%
Lolium multifl.; leaf treatment
  inhibition at 3000 g/ha: 50%
Lolium multifl.; soil treatment
  inhibition at 3000 g/ha: 50%

## C[N+](C)(C)CCCl [drawing 370]
Avena sativa; leaf treatment
  inhibition at 3000 g/ha: 45%
Avena sativa; soil treatment
  inhibition at 3000 g/ha: 25%
Hordeum vulgare; leaf treatment
  inhibition at 3000 g/ha: 10%
Hordeum vulgare; soil treatment
  inhibition at 3000 g/ha: 10%
Lolium multifl.; leaf treatment
  inhibition at 3000 g/ha: 20%
Lolium multifl.; soil treatment
  inhibition at 3000 g/ha: 5%

## Brc1ccc(N2N=NC3C4CC(C5N=NC45)C32)cc1 (stereo not shown) [drawing 401]
Sugar beet; date I (20.05.75), letter = Duncan group
  Sugar content in freshly lifted beet, absolute: 14.35%
Sugar beet; date I
  Sugar content in freshly lifted beet, relative increase: 113
Sugar beet; date II (21.08.75), letters = Duncan group
  Sugar content in freshly lifted beet, absolute: 13.85%
Sugar beet; date II
  Sugar content in freshly lifted beet, relative increase: 110

## c1ccc(N2N=NC3C4CC(C5N=NC45)C32)cc1 (stereo not shown) [drawing 410]
Digitaria sanguinalis; 2.0 kg/ha
  percentage damage: 100 percentage damage
Cynodon dactylon; 2.0 kg/ha
  percentage damage: 70 percentage damage
Cynodon dactylon; 4.0 kg/ha
  percentage damage: 90 percentage damage
Cyperus esculentus; 2.0 kg/ha
  percentage damage: 27 percentage damage
Cyperus esculentus; 4.0 kg/ha
  percentage damage: 55 percentage damage
Alopecurus myosuroides; preemergence, 4.0 kg/ha
  pest or weed control at 4000 g/ha: 85%
Ipomoea spp.; 2.0 kg/ha
  percentage damage: 50 percentage damage
Ipomoea spp.; 4.0 kg/ha
  percentage damage: 60 percentage damage

## c1ccc(N2C3C4CC(C5N=NC45)C32)cc1 (stereo not shown) [drawing 411]
Euphorbia spp.; 2.0 kg/ha
  percentage damage: 90 percentage damage
Euphorbia spp.; 4.0 kg/ha
  percentage damage: 100 percentage damage
Digitaria sanguinalis; 2.0 kg/ha
  percentage damage: 70 percentage damage
Digitaria sanguinalis; 4.0 kg/ha
  percentage damage: 100 percentage damage
Cynodon dactylon; 2.0 kg/ha
  percentage damage: 65 percentage damage
Cynodon dactylon; 4.0 kg/ha
  percentage damage: 90 percentage damage
Cyperus esculentus; 2.0 kg/ha
  percentage damage: 45 percentage damage
Cyperus esculentus; 4.0 kg/ha
  percentage damage: 60 percentage damage
Alopecurus myosuroides
  pest or weed control at 2000 g/ha: 70%
  pest or weed control at 4000 g/ha: 83%
Ipomoea spp.; 4.0 kg/ha
  percentage damage: 29 percentage damage

## c1ccc(CN2N=NC3C4CC(C5N=NC45)C32)cc1 (stereo not shown) [drawing 412]
Cynodon dactylon; 2.0 kg/ha
  percentage damage: 80 percentage damage
Cynodon dactylon; 4.0 kg/ha
  percentage damage: 100 percentage damage
Cyperus esculentus; 2.0 kg/ha
  percentage damage: 55 percentage damage
Cyperus esculentus; 4.0 kg/ha
  percentage damage: 55 percentage damage
Alopecurus myosuroides; preemergence, 2.0 kg/ha
  pest or weed control at 2000 g/ha: 55%
Alopecurus myosuroides; preemergence, 4.0 kg/ha
  pest or weed control at 4000 g/ha: 70%
Ipomoea spp.; 2.0 kg/ha
  percentage damage: 0 percentage damage
Ipomoea spp.; 4.0 kg/ha
  percentage damage: 10 percentage damage

## Cc1ccc(N2N=NC3C4CC(C5N=NC45)C32)cc1 (stereo not shown) [drawing 413]
Euphorbia spp.; 2.0 kg/ha
  percentage damage: 90 percentage damage
Euphorbia spp.; 4.0 kg/ha
  percentage damage: 100 percentage damage
Digitaria sanguinalis; 2.0 kg/ha
  percentage damage: 100 percentage damage
Digitaria sanguinalis; 4.0 kg/ha
  percentage damage: 100 percentage damage
Cynodon dactylon; 2.0 kg/ha
  percentage damage: 83 percentage damage
Cynodon dactylon; 4.0 kg/ha
  percentage damage: 100 percentage damage
Cyperus esculentus; 2.0 kg/ha
  percentage damage: 0 percentage damage
Cyperus esculentus; 4.0 kg/ha
  percentage damage: 0 percentage damage
Alopecurus myosuroides; preemergence, 2.0 kg/ha
  pest or weed control at 2000 g/ha: 40%
Alopecurus myosuroides; preemergence, 4.0 kg/ha
  pest or weed control at 4000 g/ha: 40%
Ipomoea spp.; 2.0 kg/ha
  percentage damage: 78 percentage damage
Ipomoea spp.; 4.0 kg/ha
  percentage damage: 75 percentage damage

## O=S(=O)(c1ccccc1)N1C2C3CC(C4N=NC34)C21 (stereo not shown) [drawing 414]
Euphorbia spp.; 2.0 kg/ha
  percentage damage: 65 percentage damage
Euphorbia spp.; 4.0 kg/ha
  percentage damage: 90 percentage damage
Digitaria sanguinalis; 2.0 kg/ha
  percentage damage: 68 percentage damage
Digitaria sanguinalis; 4.0 kg/ha
  percentage damage: 90 percentage damage
Cynodon dactylon; 2.0 kg/ha
  percentage damage: 90 percentage damage
Cynodon dactylon; 4.0 kg/ha
  percentage damage: 100 percentage damage
Cyperus esculentus; 2.0 kg/ha
  percentage damage: 0 percentage damage
Cyperus esculentus; 4.0 kg/ha
  percentage damage: 0 percentage damage
Alopecurus myosuroides; preemergence, 2.0 kg/ha
  pest or weed control at 2000 g/ha: 80%
Alopecurus myosuroides; preemergence, 4.0 kg/ha
  pest or weed control at 4000 g/ha: 80%
Ipomoea spp.; 2.0 kg/ha
  percentage damage: 78 percentage damage

## c1ccc(N2N=NC3C4CC(C5N=NC45)C32)cc1 (stereo not shown) [drawing 415]
Matricaria chamomilla
  percentage damage: 95 percentage damage
Panicum virgatum
  percentage damage: 100 percentage damage
Poa annua; preemergence, 2.0 kg/ha
  pest or weed control at 2000 g/ha: 95%
Sorghum halepense; 2.0 kg/ha
  percentage damage: 75 percentage damage
Sorghum halepense; 4.0 kg/ha
  percentage damage: 100 percentage damage
Stellaria media
  percentage damage: 100 percentage damage
Setaria faberii; 2.0 kg/ha
  percentage damage: 97 percentage damage
Setaria faberii; 4.0 kg/ha
  percentage damage: 100 percentage damage
Sinapis alba; preemergence, 2.0 kg/ha
  pest or weed control at 2000 g/ha: 99%
Sinapis alba; preemergence
  pest or weed control at 4000 g/ha: 100%

## c1ccc(N2C3C4CC(C5N=NC45)C32)cc1 (stereo not shown) [drawing 416]
Matricaria chamomilla
  percentage damage: 95 percentage damage
Panicum virgatum
  percentage damage: 100 percentage damage
Poa annua
  pest or weed control at 2000 g/ha: 57%
Sorghum halepense; 2.0 kg/ha
  percentage damage: 74 percentage damage
Sorghum halepense; 4.0 kg/ha
  percentage damage: 78 percentage damage
Stellaria media
  percentage damage: 100 percentage damage
Setaria faberii; 2.0 kg/ha
  percentage damage: 59 percentage damage
Setaria faberii; 4.0 kg/ha
  percentage damage: 65 percentage damage
Sinapis alba
  pest or weed control at 2000 g/ha: 74%

## c1ccc(CN2N=NC3C4CC(C5N=NC45)C32)cc1 (stereo not shown) [drawing 417]
Sorghum halepense; 2.0 kg/ha
  percentage damage: 90 percentage damage
Sorghum halepense; 4.0 kg/ha
  percentage damage: 90 percentage damage
Setaria faberii; 2.0 kg/ha
  percentage damage: 80 percentage damage
Setaria faberii; 4.0 kg/ha
  percentage damage: 90 percentage damage
Sinapis alba; preemergence, 2.0 kg/ha
  pest or weed control at 2000 g/ha: 80%
Sinapis alba; preemergence
  pest or weed control at 4000 g/ha: 95%

## Cc1ccc(N2N=NC3C4CC(C5N=NC45)C32)cc1 (stereo not shown) [drawing 418]
Poa annua; preemergence, 2.0 kg/ha
  pest or weed control at 2000 g/ha: 65%
Sorghum halepense; 2.0 kg/ha
  percentage damage: 55 percentage damage
Sorghum halepense; 4.0 kg/ha
  percentage damage: 55 percentage damage
Stellaria media
  percentage damage: 13 percentage damage
Setaria faberii; 2.0 kg/ha
  percentage damage: 55 percentage damage
Setaria faberii; 4.0 kg/ha
  percentage damage: 100 percentage damage
Sinapis alba; preemergence, 2.0 kg/ha
  pest or weed control at 2000 g/ha: 98%

## O=S(=O)(c1ccccc1)N1C2C3CC(C4N=NC34)C21 (stereo not shown) [drawing 419]
Poa annua; preemergence, 2.0 kg/ha
  pest or weed control at 2000 g/ha: 70%
Sorghum halepense; 2.0 kg/ha
  percentage damage: 53 percentage damage
Sorghum halepense; 4.0 kg/ha
  percentage damage: 50 percentage damage
Setaria faberii; 2.0 kg/ha
  percentage damage: 40 percentage damage
Setaria faberii; 4.0 kg/ha
  percentage damage: 100 percentage damage
Sinapis alba; preemergence, 2.0 kg/ha
  pest or weed control at 2000 g/ha: 90%
